The record followed here is article PMC9636582 (The Journal of Biological Chemistry, 2022).

One experiment deals with T1, full-length PPARδ (Homo sapiens, UniProt Q03181).
T1 construct: expressed in transfected cells; host or cells: HEK293
T1 sequence (Q03181 1-441): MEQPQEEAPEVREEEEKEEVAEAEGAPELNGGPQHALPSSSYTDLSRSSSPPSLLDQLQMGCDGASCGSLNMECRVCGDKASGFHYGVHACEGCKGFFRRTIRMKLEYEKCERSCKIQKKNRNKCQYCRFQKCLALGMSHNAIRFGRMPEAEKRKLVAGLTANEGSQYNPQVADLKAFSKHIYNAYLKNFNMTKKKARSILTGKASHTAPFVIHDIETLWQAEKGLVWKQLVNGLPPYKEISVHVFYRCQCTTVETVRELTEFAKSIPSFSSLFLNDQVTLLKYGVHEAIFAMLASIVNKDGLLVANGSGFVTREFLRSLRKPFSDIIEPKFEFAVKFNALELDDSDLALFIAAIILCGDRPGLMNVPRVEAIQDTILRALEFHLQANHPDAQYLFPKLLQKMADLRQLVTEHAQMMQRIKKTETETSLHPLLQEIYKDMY
Kind of experiment: full-length PPARδ PPRE luciferase reporter assay in HEK293 cells. The format is cell-based. Conditions: Fig. 1C. From the text:
Luciferase activities were normalized to β-galactosidase activities.
(In a reporter assay the amount or activity of a reporter protein is the signal.)

The next experiment has as its target T2, VP16-PPARα / GAL4-SRC-1 (Homo sapiens, UniProt Q07869).
T2 construct: expressed in transfected cells; host or cells: HEK293
T2 sequence (Q07869 1-468): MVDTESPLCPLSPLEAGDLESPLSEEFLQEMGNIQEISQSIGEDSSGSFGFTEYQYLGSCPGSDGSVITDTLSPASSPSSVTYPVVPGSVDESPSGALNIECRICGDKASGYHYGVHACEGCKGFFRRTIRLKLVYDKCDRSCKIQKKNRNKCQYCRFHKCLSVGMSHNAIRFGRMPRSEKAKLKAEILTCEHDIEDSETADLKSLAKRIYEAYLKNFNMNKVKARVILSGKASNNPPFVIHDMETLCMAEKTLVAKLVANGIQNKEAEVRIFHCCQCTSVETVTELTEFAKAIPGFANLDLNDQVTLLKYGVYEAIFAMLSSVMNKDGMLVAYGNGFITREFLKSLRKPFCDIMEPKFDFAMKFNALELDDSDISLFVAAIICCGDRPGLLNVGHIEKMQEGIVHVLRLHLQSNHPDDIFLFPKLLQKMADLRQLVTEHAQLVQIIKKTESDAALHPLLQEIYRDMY
T2 sequence (Q15788 595-771 partner limits assumed): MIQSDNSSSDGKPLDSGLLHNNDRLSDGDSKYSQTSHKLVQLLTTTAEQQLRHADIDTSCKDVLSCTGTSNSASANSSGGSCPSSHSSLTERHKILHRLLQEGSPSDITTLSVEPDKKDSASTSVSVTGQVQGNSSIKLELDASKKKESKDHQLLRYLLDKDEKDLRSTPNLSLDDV
The experiment can be described thus: mammalian two-hybrid assay, VP16-PPARα and coactivator GAL4-SRC-1. The format is cell-based. Conditions: 30 μM fatty acids, 1 μM GW7647, HEK293 cells, Fig. 3B.

The target of experiment [1] is T3, recombinant human PPARδ LBD protein (Homo sapiens, UniProt Q03181).
T3 construct: Human PPARδ LBD (140–442) construct was cloned into a pGEX-4T1 vector; GST (N, cleaved yes); made in house; host or cells: Escherichia coli BL21 (DE3) pLys
T3 sequence (Q03181 140-441 limits assumed): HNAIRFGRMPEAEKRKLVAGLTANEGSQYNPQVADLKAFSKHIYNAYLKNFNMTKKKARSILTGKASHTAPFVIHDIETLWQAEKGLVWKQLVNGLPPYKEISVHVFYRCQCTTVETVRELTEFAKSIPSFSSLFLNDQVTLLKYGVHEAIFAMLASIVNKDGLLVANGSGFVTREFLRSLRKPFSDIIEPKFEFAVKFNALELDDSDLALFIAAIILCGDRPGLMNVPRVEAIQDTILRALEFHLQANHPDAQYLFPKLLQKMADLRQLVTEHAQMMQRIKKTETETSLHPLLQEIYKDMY
Kind of experiment: [14C] DHA competitive ligand-binding assay. As to conditions: 100 nM [14C] DHA, 1 μM nonlabeled fatty acids, overnight at 4 °C. How it is done: To identify the mechanism underlying the activation of PPARδ by GLA-derived fatty acids, we performed a [^14C] DHA competitive ligand-binding assay describing the displacement of ligands from receptors with recombinant human PPARδ LBD protein produced by a bacterial expression system (Figs. 4, A and B and S2). PPARδ LBD or glutathione-S-transferase (GST) recombinant protein was incubated with both [^14C] […] A competitive inhibition of [^14C] DHA binding was analyzed as a direct binding to PPARδ LBD (see Experimental procedures). […] DHA binding to PPARδ LBD competitively (Fig. 4C).
Human PPARδ LBD (140–442) construct was cloned into a pGEX-4T1 vector (GE Healthcare Life Sciences) at the restriction enzyme site of SmaI and XhoI. The protein was expressed in Eschericia coli BL21 (DE3) pLys cells (Novagen) as a C-terminal fusion to a GST tag with a thrombin cleavage site. A single colony was cultured in 2 ml of LB media supplemented with 20 μg/ml of ampicillin and 30 μg/ml of chloramphenicol at 37 °C and 200 rpm for 18 h. The preculture was then transferred to 1 l of LB media until the A600 reached 0.6 to 0.8. IPTG was added to produce a final concentration of 0.4 mM, and expression was continued at 24 °C and 150 rpm for 18 h. Cells were collected using centrifugation, and pellets were resuspended in lysis buffer comprising 50 mM Tris–HCl (pH 7.5), 150 mM NaCl, 5 mM DTT, 1 mM EDTA, and 10% glycerol before sonication was performed. The supernatant was then collected using centrifugation at 100,000g and 4 °C for 70 min, after which it was loaded onto GST Accept (nacalai tesque) and equilibrated using the lysis buffer. Subsequently, the column was washed using five column volumes of the lysis buffer and thrombin cleavage buffer comprising 20 mM Tri–HCl (pH 8.4), 150 mM NaCl, 2.5 mM CaCl2, and 1 mM DTT, respectively. The GST tag was removed via digestion using biotinylated thrombin (Merck) for 18 h at 4 °C. The biotinylated thrombin was removed using Dynabeads M-280 streptavidin (Veritas). The purity of the target proteins was verified using SDS-PAGE.
A ligand-binding assay was performed as described previously with minor modifications ([72]). Briefly, purified recombinant human PPARδ LBD protein was incubated with 100 nM ([…]) [^14C] DHA in GP buffer (137 mM NaCl, 8.1 mM Na2HPO4, 2.68 mM KCl, 1.47 mM KH2PO4, 1% sodium azide, and 0.1% gelatin) overnight at 4 °C with or without various competitors (1 μM), including DHA and GLA-derived fatty acids. Unbound ligands were removed by adsorption to 3% dextran-coated charcoal, and the supernatant was collected. The PPARδ-bound [^14C] DHA was measured using a scintillation counter (PerkinElmer).

The structures appear in SMILES notation. Entries after “also recorded” stand apart in the source; their conditions may differ.

As for `CCCCC/C=C\C/C=C\C/C=C\CCCCC(=O)O` [GLA, γ-linolenic acid, reference compound], on full-length PPARδ, the “transactivation of full-length PPARδ (in words)” value was “not”. Moreover, on VP16-PPARα / GAL4-SRC-1, the “recruitment of coactivator SRC-1 to PPARα” value (shortened to “recruitment”) was “not”. Moreover, the “competitive displacement of [14C] DHA binding to PPARδ LBD” value (“competitive displacement … to PPARδ LBD” for short) in experiment [1] is “only weak competition”.
In the case of `CCCCCC(O)CCC=CCC=CCCCCC(=O)O` (stereo not drawn) [γHYD, 13-hydroxy-cis-6,cis-9-octadecadienoic acid], the “transactivation of full-length PPARδ (in words)” value on full-length PPARδ is listed as “activated PPARδ potently”. Further, the “recruitment” value on VP16-PPARα / GAL4-SRC-1 is “induced coactivator-recruitment”. Further, the “competitive displacement … to PPARδ LBD” value in experiment [1] was “displaced [^14C] DHA binding to PPARδ LBD competitively; also recorded: comparable ligand-binding abilities to that of the C22 fatty acid DHA”.
For the compound `CCCCCC(=O)CCC=CCC=CCCCCC(=O)O` [γKetoD, 13-oxo-cis-6,cis-9-octadecadienoic acid], the “transactivation of full-length PPARδ (in words)” value on full-length PPARδ is given as “activated PPARδ potently”. The “recruitment” value at VP16-PPARα / GAL4-SRC-1 is “induced coactivator-recruitment”. For the same compound, the “competitive displacement … to PPARδ LBD” value in experiment [1] was “displaced [^14C] DHA binding to PPARδ LBD competitively; also recorded: comparable ligand-binding abilities to that of the C22 fatty acid DHA”.
